Consider 2 compounds from patent US3981982A, “Radioimmunoassay for determining the digoxin content of a sample” (Abbott Laboratories, priority 1974, dated 1976).

In data set [1] the test system is digoxin antibody. Kind of data set: Competitive radioimmunoassay with I^125 digoxin tyramine analog, polyethylene glycol separation: percent bound (Table I). Type of data set: binding, rabbits. To be noted: for Percent Bound: single tube. An excerpt: Described is a competitive radioimmunoassay in which non-radioactive digoxin in a serum sample competes with a constant amount of I^125 digoxin tyramine analog for binding cites on a limited amount of digoxin antibody. The percentage or portion of the radioactivity labeled digoxin which is bound to the antibody is inversely proportional to the concentration of digoxin in the serum sample. The antibody bound digoxin, both radioactive and non-radioactive is separated from unbound digoxin and the radioactivity of the complex is measured with a well-type gamma scintillation counter. The concentration of digoxin in the serum is determined by comparison with standards containing measured amounts of unlabeled digoxin. The use of I^125 digoxin tyramine analog simplifies the procedure, obviating the need for liquid scintillation counting fluid which must be used with ^3 H-digoxin.
In the radioimmunoassay of the present invention, the use of polyethylene glycol is preferred to separate the bound, labeled digoxin tyramine analog from the free digoxin although ethanol or ammonium sulfate can be used. After incubation of the antigen and antibody, a predetermined amount of polyethylene glycol is added and the mixture is agitated. Subsequently, the antibody-bound digoxin is precipitated and separated by centrifugation. The radioactivity remaining in the precipitate is measured to determine the amount of I^125 digoxin tyramine analog which is bound to the antibody. This amount will be inversely proportional with the quantity of nonlabeled antigen present in the serum sample.
The radioimmunoassay of the present invention measures digoxin in the serum sample. The digoxin in a serum sample competes with a constant amount of a radioactively labeled digoxin tyramine analog for binding cites on a limited amount of digoxin antibody. The digoxin tyramine analog comprises 3-0-(4-Hydroxyphenethylcarbamoyl) digoxigenin prepared as hereinafter described. The digoxin tyramine analog is labeled with a radioactive isotope, employing conventional procedures. Iodine-I^125 is preferred as the labeling agent because of its advantageous half life but other radionuclides such as iodine^131, phosphorus^32 and tritium can also be used to radioactively label the reagent. The use of this tracer simplifies the procedure, obviating the need for liquid scintillation counting fluid which must be used with prior tracers such as ^3 H-digoxin.
1. I^125 -digoxin tyramine analog solution in an alcohol-phosphate saline buffer and having a radioactivity level of approximately 1 microcurie per vial.
2. Digoxin standards for preparation of a standard curve and comprising five vials containing 0.0, 0.5, 1.0, 2.0 and 4.0 nanograms per milliliter digoxin in normal human serum. 0.2% sodium azide is used as a preservative.
3. Digoxin antiserum obtained from rabbits in phosphate-saline buffer containing 0.1% […] serum albumin. 0.2% sodium azide is used as a preservative.
4. Polyethylene glycol, 18% solution in 0.09M barbital buffer.
The test procedure is conducted as follows.
b. Tubes 3 through 12 containing known amounts of digoxin are used to prepare the standard curve. Tubes 3 and 4, 0.0 nanograms per milliliter digoxin. Tubes 5 and 6, 0.5 nanograms per milliliter digoxin. Tubes 7 and 8, 1.0 nanograms per milliliter digoxin. Tubes 9 and 10, 2.0 nanograms per milliliter digoxin. Tubes 11 and 12, 4.0 nanograms per milliliter digoxin.
(§1) The tubes are shaken to mix the reagents therein.
The points are connected with straight lines to construct the curve.

For data set [2], the system named is digoxin antibody. Kind of data set: Reproducibility of percent bound, two technicians (Table II). Type of data set: binding, rabbits. The protocol: as §1
Table II illustrates the accuracy, precision and reproducibilty of the method of the present invention.
Replicates of 2 Panel Samples were assayed by two technicians in the
laboratory. Fifteen replicate samples were used.

For data set [3] the following is noted: digoxin level; suggested by H. M. Part et al., J. of NUCL. Med. 1973; cited from earlier work.
The conditions of data set [4]: usually; background statement; cited from earlier work.

Values joined by “and” are separate entries in the source; they are usually repeats but may differ in a detail not shown here. Equal entries are not always repeated.

With `C[C@]12CC[C@H](OC(=O)NCCc3ccc(O)c([125I])c3)C[C@H]1CC[C@@H]1[C@@H]2C[C@@H](O)[C@]2(C)[C@@H](C3=CC(=O)OC3)CC[C@]12O` [I^125 digoxin tyramine analog], the “Average % Bound” value worked out at 59.7% in the data set on digoxin antibody [1] (digoxin standard 0.0 ng/ml, mean of duplicate tubes 3, 4); 52.9% in the data set on digoxin antibody [1] (digoxin standard 0.5 ng/ml, mean of duplicate tubes 5, 6); 41.5% in the data set on digoxin antibody [1] (digoxin standard 1.0 ng/ml, mean of duplicate tubes 7, 8); 22.9% in the data set on digoxin antibody [1] (digoxin standard 2.0 ng/ml, mean of duplicate tubes 9, 10); 12.9% with digoxin antibody [1] (digoxin standard 4.0 ng/ml, mean of duplicate tubes 11, 12); 17.7% in the data set on digoxin antibody [1] (unknown serum sample No. 14, mean of duplicates). For the same compound, the “Average % Bound” value in the data set on digoxin antibody [1] (unknown serum sample No. 15, mean of duplicates) was 64.1%; with digoxin antibody [1] (unknown serum sample No. 16, mean of duplicates), 25.3%; in the data set on digoxin antibody [1] (unknown serum sample No. 17, mean of duplicates) it was 49.6%; in the data set on digoxin antibody [1] (unknown serum sample No. 18, mean of duplicates), 24.4%. The “Percent Bound” value is 59.2% and 60.2% in the data set on digoxin antibody [1] (digoxin standard 0.0 ng/ml); 53.8% and 52.1% with digoxin antibody [1] (digoxin standard 0.5 ng/ml); 41.5% with digoxin antibody [1] (digoxin standard 1.0 ng/ml); 22.5% and 23.4% in the data set on digoxin antibody [1] (digoxin standard 2.0 ng/ml); 12.8% and 12.9% in the data set on digoxin antibody [1] (digoxin standard 4.0 ng/ml); 17.5% and 17.9% with digoxin antibody [1] (unknown serum sample No. 14). The “Percent Bound” value in the data set with digoxin antibody [1] (unknown serum sample No. 15) was 63.3% and 65.0%; in the data set with digoxin antibody [1] (unknown serum sample No. 16), 25.1% and 25.5%; with digoxin antibody [1] (unknown serum sample No. 17) it was 50.8% and 48.5%; with digoxin antibody [1] (unknown serum sample No. 18) it was 24.5% and 24.3%. Also, the “% Bound” value is on record as 44.1% in the data set on digoxin antibody [2] (Panel Sample 1, Technician I, fifteen replicates); 43.6% in the data set with digoxin antibody [2] (Panel Sample 1, Technician II, fifteen replicates); 21.5% in the data set with digoxin antibody [2] (Panel Sample 2, Technician I, only 14 replicates); 20.1% in the data set with digoxin antibody [2] (Panel Sample 2, Technician II, fifteen replicates).
Regarding `C[C@H]1O[C@@H](O[C@H]2[C@@H](O)C[C@H](O[C@H]3[C@@H](O)C[C@H](O[C@H]4CC[C@@]5(C)[C@H](CC[C@@H]6[C@@H]5C[C@@H](O)[C@]5(C)[C@@H](C7=CC(=O)OC7)CC[C@]65O)C4)O[C@@H]3C)O[C@@H]2C)C[C@H](O)[C@@H]1O` [digoxin], in data set [3], the approximate toxic threshold is around 2 ng/mL. The “amounts of digoxin in serum” value in data set [4] was “less than five”.
